Patent publication US20240156802A1, “METHODS FOR TREATING DISORDERS AMELIORATED BY MUSCARINIC RECEPTOR ACTIVATION” (KARUNA THERAPEUTICS, INC., priority 2021, published 2024)

What was measured:
[1] = 25-75 mg TID, 75-225 mg TDD; cited from earlier work
[2] = 125/30 mg dose group in EMERGENT-1, day 28, ages 18-60, TDD 250 mg; cited from earlier work
[3] = Phase 1b exploratory PK of xanomeline in healthy elderly subjects given KarXT; format: in vivo, human; conditions: for blood levels in healthy elderly subjects compared with adults under 65: Cohorts 1 and 2, lower oral doses; for Cmax: human, plasma, oral
Protocol: (§1) The purpose of this Phase 1b clinical trial was to evaluate the safety and tolerability of KarXT in healthy elderly volunteers and to assess its potential efficacy and safety in dementia-related psychosis (DRP). In the Phase 1b trial, the various doses and ratios were evaluated for both xanomeline and trospium in healthy elderly volunteers using a flexible dosing protocol titrated over about 2 to 3 weeks. The maximum dose was reached on Day 12, 15, and 17 in Cohorts 1, 2, and 3, respectively. Dosing lasted a total of 14, 18, and 20 days, respectively. Each cohort consisted of 16 healthy elderly volunteers.
(§2) This was a Phase 1, randomized, double-blind, multiple-dose, adaptive-design study evaluating the safety, tolerability, and exploratory PK of KarXT in healthy elderly subjects. The study consisted of a screening period of up to 28 days. This inpatient investigative period included a treatment period and a post-treatment observation period. A follow-up visit was completed 7±3 days after administering the final dose of the study drug. For Cohort 1, the inpatient investigative period was up to 17 days, including admission, a treatment period of up to 14 days, and a 2-day post-treatment observation period. For Cohort 2, the inpatient investigative period was up to 21 days, including admission, a treatment period of up to 18 days, and a 2-day post-treatment observation period. For Cohort 3, the inpatient investigative period was up to 23 days, including admission, a treatment period of up to 20 days, and a 2-day post-treatment observation period.
Subjects assigned to active treatment in Cohorts 1 and 2 started treatment with a lead-in dose of KarXT for 2 days. Subjects assigned to active treatment in Cohort 3 started treatment with a lead-in dose of KarXT for 4 days. KarXT doses were increased beginning on Day 3 (or Day 5 for Cohort 3) according to cohort-specific plans (FIGURE S 1) to achieve the following final cohort-specific total daily dose (TDD) of KarXT, if tolerated: • Cohort 1: 200/40 mg • Cohort 2: 200/30 mg • Cohort 3: 150/20 mg
The assessment of adverse events, clinical laboratory samples, electrocardiograms (ECGs), vital signs (including orthostatic vital signs), urine output monitoring, Columbia-Suicide Severity Rating Scale (C-SSRS), serial PK sampling, and collecting saliva to measure saliva volume were performed at defined time points during the study.
Table 2 contains the xanomeline Cmax data collected on the final day of the dosing period for cohorts 1, 2, and 3 in the healthy elderly trial compared to day 28 (last day PK data was collected) in the EMERGENT-1 trial for a patient population of ages 18-60 inclusive.

[4] = 26-week study of Alzheimer's disease; cited from earlier work
[5] = Phase 1b safety and tolerability of KarXT in healthy elderly subjects (adverse events); format: in vivo, human; conditions: 30 mg TDD versus 40 mg TDD, given with xanomeline, normal elderly volunteers
Protocol: as §1
as §2, with “For Cohort 3, the inpatient investigative period was up to 23 days, including admission, a treatment period of up to 20 days, and a 2-day post-treatment observation period.” left out

In the case of `CCCCCCOc1nsnc1C1=CCCN(C)C1` [Xanomeline, xanomeline], the effect on schizophrenia [1] is given as “alleviated”, the “mean Cmax of xanomeline” value [2] is given as 9.4 ± 1.5 ng/mL and the “blood levels in healthy elderly subjects compared with adults under 65” value [3] is given as “higher blood levels”. It also gave a Cmax ([3]; Cohort 1, final day of dosing, average dose before PK 67 mg, average TDD 172 mg) of 7.3 ± 2 ng/mL, a Cmax ([3]; Cohort 2, final day of dosing, average dose before PK 61 mg, average TDD 156 mg) of 14.2 ± 5.3 ng/mL and a Cmax ([3]; Cohort 3, final day of dosing, average dose before PK 39 mg, average TDD 116 mg) of 7.2 ± 2 ng/mL. The “mean plasma levels (Cmax) compared with EMERGENT-1 (200-250 mg xanomeline)” value ([3]; oral xanomeline about 100 to 200 mg per day, healthy elderly volunteers) was “comparable to, or slightly higher than” and the dropout rate [4] was 56%.
For `O=C(O[C@H]1C[C@H]2CC[C@@H](C1)[N+]21CCCC1)C(O)(c1ccccc1)c1ccccc1` [trospium, trospium chloride], the “tolerability by trospium dose” value [5] was “performed better” and the “blood levels in healthy elderly subjects compared with adults under 65” value [3] was “higher blood levels”.
